Earlier results in patent US20080213192A1, “AEROSOL LOTION FORMULATIONS” (Schering-Plough Healthcare Products, Inc., priority 2006, published 2008).

Settings: Raval and Parrott, J. Pharm. Sci. 1967

SMILES: COC(=O)c1ccc(O)cc1 [methylparaben]
- pH above which methylparaben hydrolyzes: > 6
